Assays:
[1] = tested on: [Candida] auris; assay: Antifungal activity against Candida auris 277 assessed as fungal growth inhibition incubated for 48 hrs by broth microdilution method; assay type: functional; conditions: Candidozyma auris
[2] = tested on: Candida albicans; assay: Antifungal activity against Candida albicans 337 assessed as fungal growth inhibition incubated for 48 hrs by broth microdilution method; assay type: functional
[3] = tested on: Pichia kudriavzevii; assay: Antifungal activity against Candida krusei 68 assessed as fungal growth inhibition incubated for 48 hrs by broth microdilution method; assay type: functional
[4] = tested on: Cryptococcus neoformans; assay: Antifungal activity against Cryptococcus neoformans HN2-40 assessed as fungal growth inhibition incubated for 48 hrs by broth microdilution method; assay type: functional
[5] = tested on: Aspergillus fumigatus; assay: Antifungal activity against Aspergillus fumigatus 7544 assessed as fungal growth inhibition incubated for 48 hrs by broth microdilution method; assay type: functional
[6] = tested on: Cryptococcus neoformans; assay: Antifungal activity against Cryptococcus neoformans 443 assessed as fungal growth inhibition incubated for 48 hrs by broth microdilution method; assay type: functional
[7] = Antifungal activity against Cryptococcus gattii WM179 assessed as fungal growth inhibition incubated for 48 hrs by broth microdilution method; assay type: functional, Cryptococcus gattii VGI
[8] = tested on: Nakaseomyces glabratus; assay: Antifungal activity against Candida glabrata 201 assessed as fungal growth inhibition incubated for 48 hrs by broth microdilution method; assay type: functional
[9] = tested on: [Candida] auris; assay: Antifungal activity against Candida auris 278 assessed as fungal growth inhibition incubated for 48 hrs by broth microdilution method; assay type: functional; conditions: Candidozyma auris
[10] = tested on: Cryptococcus neoformans; assay: Antifungal activity against Cryptococcus neoformans HN19 assessed as fungal growth inhibition incubated for 48 hrs by broth microdilution method; assay type: functional
[11] = tested on: Candida tropicalis; assay: Antifungal activity against Candida tropicalis 184 assessed as fungal growth inhibition incubated for 48 hrs by broth microdilution method; assay type: functional
[12] = tested on: Aspergillus fumigatus; assay: Antifungal activity against Aspergillus fumigatus A assessed as fungal growth inhibition incubated for 48 hrs by broth microdilution method; assay type: functional
[13] = tested on: Candida tropicalis; assay: Antifungal activity against Candida tropicalis 177 assessed as fungal growth inhibition incubated for 48 hrs by broth microdilution method; assay type: functional
[14] = tested on: Candida tropicalis; assay: Antifungal activity against Candida tropicalis 176 assessed as fungal growth inhibition incubated for 48 hrs by broth microdilution method; assay type: functional
[15] = tested on: Cryptococcus neoformans; assay: Antifungal activity against Cryptococcus neoformans HN17 assessed as fungal growth inhibition incubated for 48 hrs by broth microdilution method; assay type: functional
[16] = tested on: Nakaseomyces glabratus; assay: Antifungal activity against Candida glabrata 222 assessed as fungal growth inhibition incubated for 48 hrs by broth microdilution method; assay type: functional
[17] = tested on: Candida albicans; assay: Antifungal activity against Candida albicans 21 assessed as fungal growth inhibition incubated for 48 hrs by broth microdilution method; assay type: functional
[18] = tested on: Cryptococcus neoformans; assay: Antifungal activity against Cryptococcus neoformans 444 assessed as fungal growth inhibition incubated for 48 hrs by broth microdilution method; assay type: functional
[19] = tested on: Candida albicans; assay: Antifungal activity against Candida albicans 338 assessed as fungal growth inhibition incubated for 48 hrs by broth microdilution method; assay type: functional
[20] = tested on: Pichia kudriavzevii; assay: Antifungal activity against Candida krusei 471 assessed as fungal growth inhibition incubated for 48 hrs by broth microdilution method; assay type: functional
[21] = Cytotoxicity against human Caco-2 cells assessed as cell growth inhibition incubated for 24 hrs by CCK8 assay; assay type: toxicity, cell-based
[22] = Antifungal activity against Cryptococcus gattii SCZ20024 assessed as fungal growth inhibition incubated for 48 hrs by broth microdilution method; assay type: functional, Cryptococcus gattii VGI
[23] = tested on: Nakaseomyces glabratus; assay: Antifungal activity against Candida glabrata 203 assessed as fungal growth inhibition incubated for 48 hrs by broth microdilution method; assay type: functional
[24] = tested on: Candida parapsilosis; assay: Antifungal activity against Candida parapsilosis 125 assessed as fungal growth inhibition incubated for 48 hrs by broth microdilution method; assay type: functional; conditions: Lodderomyces parapsilosis
[25] = tested on: [Candida] auris; assay: Antifungal activity against Candida auris 887 assessed as fungal growth inhibition incubated for 48 hrs by broth microdilution method; assay type: functional; conditions: Candidozyma auris
[26] = tested on: Cryptococcus neoformans; assay: Antifungal activity against Cryptococcus neoformans 56992 assessed as fungal growth inhibition incubated for 48 hrs by broth microdilution method; assay type: functional
[27] = tested on: Pichia kudriavzevii; assay: Antifungal activity against Candida krusei 472 assessed as fungal growth inhibition incubated for 48 hrs by broth microdilution method; assay type: functional
[28] = tested on: Candida parapsilosis; assay: Antifungal activity against Candida parapsilosis 107 assessed as fungal growth inhibition incubated for 48 hrs by broth microdilution method; assay type: functional; conditions: Lodderomyces parapsilosis
[29] = tested on: Candida albicans; assay: Antifungal activity against Candida albicans SC5314 assessed as fungal growth inhibition incubated for 48 hrs by broth microdilution method; assay type: functional
[30] = tested on: Pichia kudriavzevii; assay: Antifungal activity against Candida krusei 477 assessed as fungal growth inhibition incubated for 48 hrs by broth microdilution method; assay type: functional
[31] = tested on: [Candida] auris; assay: Antifungal activity against Candida auris 276 assessed as fungal growth inhibition incubated for 48 hrs by broth microdilution method; assay type: functional; conditions: Candidozyma auris
[32] = tested on: Nakaseomyces glabratus; assay: Antifungal activity against Candida glabrata 202 assessed as fungal growth inhibition incubated for 48 hrs by broth microdilution method; assay type: functional
[33] = tested on: Pichia kudriavzevii; assay: Antifungal activity against Candida krusei 69 assessed as fungal growth inhibition incubated for 48 hrs by broth microdilution method; assay type: functional
[34] = tested on: Cryptococcus neoformans; assay: Antifungal activity against Cryptococcus neoformans BJ3 assessed as fungal growth inhibition incubated for 48 hrs by broth microdilution method; assay type: functional
[35] = tested on: Cryptococcus neoformans; assay: Antifungal activity against Cryptococcus neoformans HN2 assessed as fungal growth inhibition incubated for 48 hrs by broth microdilution method; assay type: functional
[36] = tested on: Nakaseomyces glabratus; assay: Antifungal activity against Candida glabrata 204 assessed as fungal growth inhibition incubated for 48 hrs by broth microdilution method; assay type: functional
[37] = tested on: [Candida] auris; assay: Antifungal activity against Candida auris CBS 12372 assessed as fungal growth inhibition incubated for 48 hrs by broth microdilution method; assay type: functional; conditions: Candidozyma auris
[38] = tested on: Aspergillus fumigatus; assay: Antifungal activity against Aspergillus fumigatus 023-12 assessed as fungal growth inhibition incubated for 48 hrs by broth microdilution method; assay type: functional
[39] = tested on: Cryptococcus neoformans; assay: Antifungal activity against Cryptococcus neoformans HN20 assessed as fungal growth inhibition incubated for 48 hrs by broth microdilution method; assay type: functional
[40] = tested on: Candida albicans; assay: Antifungal activity against Candida albicans 22 assessed as fungal growth inhibition incubated for 48 hrs by broth microdilution method; assay type: functional
[41] = tested on: Candida parapsilosis; assay: Antifungal activity against Candida parapsilosis 106 assessed as fungal growth inhibition incubated for 48 hrs by broth microdilution method; assay type: functional; conditions: Lodderomyces parapsilosis
[42] = tested on: Candida parapsilosis; assay: Antifungal activity against Candida parapsilosis 105 assessed as fungal growth inhibition incubated for 48 hrs by broth microdilution method; assay type: functional; conditions: Lodderomyces parapsilosis
[43] = tested on: Cryptococcus neoformans; assay: Antifungal activity against Cryptococcus neoformans HN15 assessed as fungal growth inhibition incubated for 48 hrs by broth microdilution method; assay type: functional
[44] = tested on: Cryptococcus neoformans; assay: Antifungal activity against Cryptococcus neoformans SH68 assessed as fungal growth inhibition incubated for 48 hrs by broth microdilution method; assay type: functional
[45] = tested on: Candida parapsilosis; assay: Antifungal activity against Candida parapsilosis ATCC22019 assessed as fungal growth inhibition incubated for 48 hrs by broth microdilution method; assay type: functional; conditions: Lodderomyces parapsilosis
[46] = Antifungal activity against Cryptococcus gattii E566 assessed as fungal growth inhibition incubated for 48 hrs by broth microdilution method; assay type: functional, Cryptococcus gattii VGI
[47] = tested on: Pichia kudriavzevii; assay: Antifungal activity against Candida krusei 474 assessed as fungal growth inhibition incubated for 48 hrs by broth microdilution method; assay type: functional
[48] = tested on: [Candida] auris; assay: Antifungal activity against Candida auris 888 assessed as fungal growth inhibition incubated for 48 hrs by broth microdilution method; assay type: functional; conditions: Candidozyma auris
[49] = tested on: Candida parapsilosis; assay: Antifungal activity against Candida parapsilosis 104 assessed as fungal growth inhibition incubated for 48 hrs by broth microdilution method; assay type: functional; conditions: Lodderomyces parapsilosis
[50] = tested on: Candida tropicalis; assay: Antifungal activity against Candida tropicalis 178 assessed as fungal growth inhibition incubated for 48 hrs by broth microdilution method; assay type: functional
[51] = tested on: Cryptococcus neoformans; assay: Antifungal activity against Cryptococcus neoformans 445 assessed as fungal growth inhibition incubated for 48 hrs by broth microdilution method; assay type: functional
[52] = tested on: Candida tropicalis; assay: Antifungal activity against Candida tropicalis 182 assessed as fungal growth inhibition incubated for 48 hrs by broth microdilution method; assay type: functional
[53] = tested on: Cryptococcus neoformans; assay: Antifungal activity against Cryptococcus neoformans HN1 assessed as fungal growth inhibition incubated for 48 hrs by broth microdilution method; assay type: functional

OC(Cn1cncn1)(Cn1cncn1)c1ccc(F)cc1F [FLUCONAZOLE]
0.125 µg/mL: MIC [23] | MIC [52]
0.5 µg/mL: MIC [17] | MIC [19] | MIC [29] | MIC [40] | MIC [41] | MIC [45] | MIC [49]
> 64 µg/mL: MIC [5] | MIC [9] | MIC [12] | MIC [20] | IC50 at 24 h [21] | MIC [24] | MIC [25] | MIC [27] | MIC [28] | MIC [37] | MIC [38] | MIC [42] | MIC [47] | MIC [48]
4 µg/mL: MIC [1] | MIC [7] | MIC [22] | MIC [26] | MIC [35] | MIC [43] | MIC [53]
16 µg/mL: MIC [15] | MIC [34]
1 µg/mL: MIC [8] | MIC [16] | MIC [32] | MIC [36]
2 µg/mL: MIC [11] | MIC [13] | MIC [14] | MIC [31] | MIC [39] | MIC [46] | MIC [50]
8 µg/mL: MIC [4] | MIC [6] | MIC [10] | MIC [18] | MIC [44] | MIC [51]
0.25 µg/mL: MIC [2] | MIC [3] | MIC [30] | MIC [33]

Oc1c(I)cc(Cl)c2cccnc12 [CLIOQUINOL]
0.125 µg/mL: MIC [2] | MIC [6] | MIC [8] | MIC [9] | MIC [11] | MIC [13] | MIC [15] | MIC [17] | MIC [18] | MIC [19] | MIC [23] | MIC [27] | MIC [29] | MIC [32] | MIC [33] | MIC [35] | MIC [36] | MIC [40] | MIC [43] | MIC [44] | MIC [49] | MIC [50] | MIC [52] | MIC [53]
19.3 µg/mL: IC50 at 24 h [21]
0.063 µg/mL: MIC [1] | MIC [4] | MIC [10] | MIC [26] | MIC [31] | MIC [34] | MIC [37] | MIC [39] | MIC [51]
0.25 µg/mL: MIC [3] | MIC [5] | MIC [12] | MIC [16] | MIC [20] | MIC [24] | MIC [30] | MIC [38] | MIC [41] | MIC [42] | MIC [47] | MIC [48]
0.5 µg/mL: MIC [25] | MIC [28] | MIC [45]
0.032 µg/mL: MIC [14]
0.031 µg/mL: MIC [7] | MIC [22] | MIC [46]

Source: ChEMBL document CHEMBL5375952, “Discovery of Novel 8-Hydroxyquinoline Derivatives with Potent In Vitro and In Vivo Antifungal Activity” (J Med Chem, 2023)
